The assay concerns the target T1, recombinant human FAK1 (Homo sapiens, UniProt Q05397).
T1 construct: fused on or other part: N-terminal 6xHis tag
The experiment in a line: FAK1 HTRF assay. It counts as biochemical. Here is the method: Active FAK1 was prepared for use in the Homogeneous Time-Resolved Fluorescence (HTRF) assay. Briefly, N-terminal 6 His tagged recombinant human FAK1, from residue 692-end (GenBank accession no. L13616) was expressed by Bacculovirus in sf9 cells. […] A 1.6 mg/mL (45 μM) stock was used in the HTRF assay at a final concentration of 10 nM.
Gastrin precursor (tyr87) biotinylated peptide which contains the residues surrounding tyrosine 87 (EEAY*GWM) of gastrin precursor was obtained (Cell Signaling Tech, Item no. 1310, Lot 7). The peptide was provided at a stock concentration of 6 μM, and used a final concentration of 0.5 μM in the HTRF assay.
10 mM stock in 100 μL Enzyme assay buffer pH7.4 was prepared freshly and used at a final concentration of 10 μM in the assay.
Powders were dissolved in 100% DMSO to a final stock concentration of 10 mM. The volume needed (in μL) to add for 10 mM=mg powder is 10^5/MW of compound. The final compound concentration in the assay plate started at 10 μM.
Pfizer FAK inhibitor PF-562271 (N-methyl-N-(3-(((2-((2-oxoindolin-5-yl)amino)-5-(trifluoromethyl)pyrimidin-4-yl)amino)methyl)pyridin-2-yl)methanesulfonamide) was prepared as per the reported procedure from US Patent Publication No. 2005/256145A1.
Streptavidin-Allophycocyanin was obtained (Prozyme, Cat. No. PJ25S. SA-APC was provided at a stock concentration of 2.06 mg/mL, where APC concentration was 11.6 μM and the streptavidin concentration was 15.5 μM. SA-APC was used at a final concentration of 12 nM in the assay (based on streptavidin concentration).
This reagent was obtained from Perkin ElmerAD0068. Europium-W1024-PT-66 Anti Phospho Tyrosine Ab is a monoclonal IgG1 that recognizes phospho tyrosine peptide. 100 μg/mL stock was used at a final concentration of 0.1 nM in the assay.
• 1. The compound dilutions were made by TECAN liquid handler as per the scheme in FIG. 1. • 2. 16 μL of diluted compound was added to each well of the assay plate using TECAN liquid handler. • 3. 20 μL of substrate mix (biotinylated gastrin precursor) was added into each well of the assay plate manually. • 4. 10 μL of enzyme mix (FAK1) was added to each well except mins. • 5. The plate was incubated at rt for 45 min with shaking. • 6. The HTRF mix was prepared and 75 μL was added to the HTRF plate. • 7. After the incubation was over, 10 μL of the mixture was transferred to the HTRF assay plate and incubated for 45 min at rt with shaking. • 8. The readings were taken in Pherastar in HTRF mode (ext 337 nm, em 665 & 620 nm) • 9. The results were analyzed using Graphpad Prism® software after calculation the z factor signal window and % inhibition. • 10. The IC50 was calculated.
In general terms: In TR-FRET formats the signal depends on donor and acceptor labels being close together.
T1 sequence (Q05397 422-680 limits assumed): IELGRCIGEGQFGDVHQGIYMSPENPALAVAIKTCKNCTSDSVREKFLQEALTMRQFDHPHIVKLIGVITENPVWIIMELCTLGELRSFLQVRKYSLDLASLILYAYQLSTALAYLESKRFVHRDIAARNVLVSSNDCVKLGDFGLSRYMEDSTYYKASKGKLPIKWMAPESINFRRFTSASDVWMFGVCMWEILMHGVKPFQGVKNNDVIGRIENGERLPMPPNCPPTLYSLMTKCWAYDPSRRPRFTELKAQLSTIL
What is called IC50 is the midpoint of a concentration-inhibition curve. Turning to `CC1CN(c2ccc(Nc3cc4c(ccn4S(=O)(=O)c4ccccc4C#N)cn3)cc2)CC(C)N1` (stereo not drawn) [Example 529], the IC50 was less than 20 nM.
As for `CN(c1ccccc1Cn1ccc2cnc(Nc3ccc(N4CCNCC4)c(F)c3)cc21)S(C)(=O)=O` [Example 322], the figure is less than 20 nM; as for `CN1CCN(c2ccc(Nc3ncc4c(n3)N(S(=O)(=O)c3cccc5cccnc35)CC43CC3)cc2)CC1` [Example 499], less than 20 nM.
On to `CN(C)C1CCN(c2ccc(Nc3ncc4ccn(Cc5cc(Cl)ccc5N(C)S(C)(=O)=O)c4n3)cc2)CC1` [Example 796], for which the IC50 is less than 20 nM.
In the case of `O=S(=O)(c1ccc(Nc2ncc3ccn(Cc4ccccc4OC(F)F)c3n2)cc1)C(F)F` [Example 9], the IC50 was greater than 1000 nM.
In the case of `CN(c1ncccc1Cn1ccc2cnc(Nc3ccc(C#N)nc3)cc21)S(C)(=O)=O` [Example 22], the IC50 was greater than 1000 nM.
`c1cncc(Cn2ccc3cnc(Nc4ccc5ncsc5c4)cc32)c1` [Example 15]: the IC50 is greater than 1000 nM.
For the molecule `CN1CCC(NC(=O)c2ccc(Nc3ncc4c(n3)N(S(=O)(=O)c3cccc5cccnc35)CC4(C)C)cc2)CC1` [Example 702], the IC50 was less than 20 nM.
Consider `O=C1CCc2cc(Nc3cc4c(cn3)cnn4S(=O)(=O)c3cccc4cccnc34)ccc2N1` [Example 187], for which the IC50 was less than 20 nM.
As for `CN(c1ccc(C(F)(F)F)cc1Cn1ccc2cnc(Nc3ccc(N4CCNCC4)cc3)nc21)S(C)(=O)=O` [Example 892], the figure is less than 20 nM; as for `O=C1CCc2cc(Nc3cc4c(ccn4S(=O)(=O)c4ccc(OC(F)(F)F)cc4)cn3)ccc2N1` [Example 48], greater than 1000 nM.
For `CN(c1ccc(C#N)cc1Cn1ccc2cnc(Nc3ccc(N4CCNCC4)cc3)nc21)S(C)(=O)=O` [Example 715] the value was less than 20 nM; for `Cn1cnc(S(=O)(=O)n2ccc3cnc(Nc4ccc(N5CCNCC5)cc4)nc32)c1` [Example 236], greater than 1000 nM; for `Cc1ccc(N(C)S(C)(=O)=O)c(Cn2ccc3cnc(Nc4ccc(N5CCN[C@@H](C)C5)cc4)nc32)c1` [Example 766], less than 20 nM.
Consider `CC(C)C(=O)Nc1ccc(Nc2ncc3ccn(S(=O)(=O)c4cccc5cccnc45)c3n2)cc1` [Example 324], for which the IC50 is less than 20 nM.
As for `CCC1CN(c2ccc(Nc3ncc4ccn(Cc5cc(OC)ccc5N(C)S(C)(=O)=O)c4n3)cc2)CCN1` (stereo not drawn) [Example 704], the IC50 was less than 20 nM.
As for `CC(=O)Nc1cccc(Nc2cc3c(cn2)c(C)nn3S(=O)(=O)c2ccccc2OC(F)(F)F)c1` [Example 88], the IC50 is greater than 1000 nM.
With `O=C1CCc2cc(Nc3cc4nn(Cc5ccccc5OC(F)F)cc4cn3)ccc2N1` [Example 67], the IC50 is greater than 1000 nM.
For `COc1cc(Nc2cc3c(ccn3Cc3cccnc3)cn2)cc(OC)c1OC` [Example 6], the 50% inhibitory concentration (IC50) was greater than 1000 nM.
As for `Cc1ccc(N(C)S(C)(=O)=O)c(Cn2ccc3cnc(Nc4ccc(C5CCNCC5)cc4)nc32)c1` [Example 789], the IC50 is less than 20 nM.
Take `CC(=O)Nc1ccc(Nc2cc3c(cn2)c(C)nn3Cc2cccnc2N(C)S(C)(=O)=O)nc1` [Example 70]: the IC50 is greater than 1000 nM.
For `O=S(=O)(c1cccc2cccnc12)n1ncc2cnc(Nc3ccc(N4CCN(CCO)CC4)cc3)cc21` [Example 351] the value was less than 20 nM; for `CC(=O)Nc1cccc(Nc2ncc3ccn(S(=O)(=O)c4ccc(OC(F)(F)F)cc4)c3n2)c1` [Example 44], greater than 1000 nM; for `CC(C)N1CCN(c2ccc(Nc3ncc4ccn(Cc5ccccc5N(C)S(C)(=O)=O)c4n3)cc2)CC1` [Example 484], less than 20 nM.
`COc1ccc(Nc2cc3c(ccn3S(=O)(=O)c3cccc(OC(F)(F)F)c3)cn2)cc1` [Example 53]: the IC50 is greater than 1000 nM.
Take `O=C1CCc2cc(Nc3ncc4ccn(Cc5ccccc5OC(F)(F)F)c4n3)ccc2N1` [Example 83]: the IC50 was less than 20 nM.
Take `COc1cc(Nc2ncc3ccn(S(=O)(=O)c4cccc5cccnc45)c3n2)ccc1NC(=O)C1CCC1` [Example 373]: the IC50 was less than 20 nM.
For `C[C@@H]1CN(c2ccc(Nc3ncc4ccn(Cc5ccccc5N(C)S(C)(=O)=O)c4n3)cc2C2CC2)CCN1` [Example 710], the IC50 is less than 20 nM.
With `O=S(=O)(c1ccc(OC(F)(F)F)cc1)n1ccc2cnc(Nc3ccc4ncsc4c3)cc21` [Example 49], the IC50 was greater than 1000 nM.
On to `CS(=O)(=O)c1ccc(Nc2cc3c(ccn3S(=O)(=O)c3cccc(OC(F)(F)F)c3)cn2)cc1` [Example 51], for which the IC50 was greater than 1000 nM.
As for `Cc1cn(S(=O)(=O)c2cccc3cccnc23)c2nc(Nc3ccc(N4CCNCC4)cc3)ncc12` [Example 769], the figure is less than 20 nM; as for `Cc1ccc(N(C)S(C)(=O)=O)c(Cn2ccc3cnc(Nc4ccc(N5CCN[C@@H](C)C5)c(F)c4)nc32)c1` [Example 809], less than 20 nM.
For `O=S(=O)(c1ccc(Nc2cc3c(ccn3Cc3ccccc3OC(F)F)cn2)cc1)C(F)F` [Example 19] the value was greater than 1000 nM.
`O=S(=O)(C1CCCC1)n1ccc2cnc(Nc3ccc(N4CCNCC4)cc3)nc21` [Example 238]: the IC50 is greater than 1000 nM.
On to `CNC(=O)c1ccc(Nc2ncc3ccn(Cc4cc(F)ccc4N(C)S(C)(=O)=O)c3n2)cc1` [Example 983], for which the IC50 was less than 20 nM.
In the case of `CN(c1ccc(F)cc1Cn1ccc2cnc(Nc3ccc(N4CCC(N)CC4)cc3)nc21)S(C)(=O)=O` [Example 799], the IC50 is less than 20 nM.
As for `COc1ccc(N(C)S(C)(=O)=O)c(Cn2ccc3cnc(Nc4ccc(N5CCC(N(C)C)CC5)c(OC)c4)nc32)c1` [Example 703], the figure is less than 20 nM; as for `COc1cc(Nc2ncc3ccn(Cc4cc(C)ccc4N(C)S(C)(=O)=O)c3n2)ccc1N1CCNCC1` [Example 942], less than 20 nM; as for `COc1cc(Nc2ncc3ccn(S(=O)(=O)c4cccc5cccnc45)c3n2)ccc1N1CC2CC1CN2C` (stereo not drawn) [Example 439], less than 20 nM.
Consider `Cc1ccc(N(C)S(C)(=O)=O)c(Cn2ccc3cnc(Nc4ccc(N5CCC(N(C)C)CC5)cc4)nc32)c1` [Example 761], for which the IC50 was less than 20 nM.
Turning to `CN(c1ccccc1Cn1ncc2cnc(Nc3ccc(N4CCNCC4)cc3)cc21)S(C)(=O)=O` [Example 222], the IC50 was less than 20 nM.
As for `Cc1ccc(N(C)S(C)(=O)=O)c(Cn2ccc3cnc(Nc4ccc(N5CCNCC5)c(F)c4)nc32)c1` [Example 941], the figure is less than 20 nM.
In the case of `CNC(=O)Cc1ccccc1Cn1ccc2cnc(Nc3ccc(N4CCN(C)CC4)cc3)nc21` [Example 474], the IC50 is greater than 1000 nM.
For `CC1CN(c2ccc(Nc3ncc4ccn(Cc5ccccc5N(C)S(C)(=O)=O)c4n3)cc2)CC(C)N1` (stereo not drawn) [Example 523] the value was less than 20 nM; for `Cc1cc(Nc2ncc3ccn(Cc4cc(F)ccc4N(C)S(C)(=O)=O)c3n2)ccc1N1CCC(N(C)C)CC1` [Example 794], less than 20 nM.
Consider `C[C@@H]1CN(c2ccc(Nc3ncc4ccn(Cc5cc(F)ccc5N(C)S(C)(=O)=O)c4n3)cc2)CCN1` [Example 793], for which the IC50 is less than 20 nM.
For `CN(c1ncccc1Cn1ccc2cnc(Nc3ccc(S(=O)(=O)C(F)F)cc3)cc21)S(C)(=O)=O` [Example 25] the value was greater than 1000 nM.
In the case of `Cc1ccc(N(C)S(C)(=O)=O)c(Cn2ccc3cnc(Nc4ccc(C5CCC(N(C)C)CC5)cc4)nc32)c1` (stereo not drawn) [Example 980], the IC50 was less than 20 nM.
For the molecule `CSc1cccc(Nc2ncc3cnn(Cc4cccnc4)c3n2)c1` [Example 10], the IC50 is greater than 1000 nM.
For `CNC(=O)c1ccc(Nc2ncc3ccn(Cc4cc(C)ccc4N(C)S(C)(=O)=O)c3n2)cc1` [Example 986] the value was less than 20 nM; for `CN(C)C1CCN(c2ccc(Nc3ncc4ccn(Cc5ccccc5N(C)S(C)(=O)=O)c4n3)cc2)C1` (stereo not drawn) [Example 571], less than 20 nM; for `Cc1cnc(N(C)S(C)(=O)=O)c(Cn2ccc3cnc(Nc4ccc(N5CCC(N(C)C)CC5)c(C)c4)nc32)c1` [Example 981], less than 20 nM.
Turning to `Cc1ccc(N(C)S(C)(=O)=O)c(Cn2ccc3cnc(Nc4ccc(N5CCNCC5)cc4)nc32)c1` [Example 759, N-methyl-N-(4-methyl-2-((2-((4-(piperazin-1-yl)phenyl)amino)-7H-pyrrolo[2,3-d]pyrimidin-7-yl)methyl)phenyl)methanesulfonamide], the IC50 was less than 20 nM.
Turning to `CC(=O)Nc1cccc(Nc2cc3nn(Cc4ccccc4OC(F)F)cc3cn2)c1` [Example 63], the IC50 is greater than 1000 nM.

For the origin of these results see patent publication US20160222014A1, “COMPOUNDS FOR REGULATING FAK AND/OR SRC PATHWAYS” (ASANA BIOSCIENCES, LLC, priority 2013, published 2016).
